Results as given in patent US11173173B2, “Methods for treating chemoresistant cancer-initiating cells” (UNIVERSITY OF CONNECTICUT, priority 2015, dated 2021).

Key:
pS^552-β-catenin = assay: Western analysis of pS552-β-catenin in compound-treated TOP and FOP cells; details: TOP and FOP cells treated 48 hours at EC90, EC50, EC25
Method: Cytotoxicity profiles (CTG) of compounds were also determined. […] TOP and FOP cells were treated with candidate compounds at EC90, EC50 and EC25 derived from (b) for 48 hours, washed and flash frozen for Western analysis (c).
Activity of compounds was tested against HEK-TOP cells vs. HEK FOP cells for inhibition of luciferase activity. The cytotoxicity profiles of the compounds were also tested using Cell Titer Glo assay (Promega) on HEK-TOP cell lines. […] The HEK cells and HEK Top cells were plated at 300,000 cells/well in 6 well plates and were treated in duplicate with EC90, EC50 and EC25 concentrations of the 25 repurchased compounds as well as three controls. After 48 h of exposure, the cells were washed with PBS and flash frozen. The frozen cells were lysed directly in plates for Western analysis.

[1] = test system: T-ALL blast cells, LSCs and HSPCs of leukemic Pten:β-cat^Act mice; assay: Flow cytometry of BM of treated leukemic mice (blast cells, LSCs, HSPCs); type: in vivo, mouse; details: 10 days post-treatment
Method: Leukemic mice were treated with vehicle, chemotherapy, [Low]DXR or chemotherapy+[Low]DXR as described in FIG. 3a. a-c, At 10 days post-treatment, BM was analyzed by flow cytometry to determine frequency of blast cells (a), LSCs (b) and HSPCs (c). Shown are representative plots. d, Average frequency±SD of each population from a-c (n≥6 per group). e, Limiting-dilution assays to determine CRU frequency were performed on blast cells and LSCs sorted from chemotherapy treated leukemic mice and on HSPCs sorted from [Low]DXR treated mice. Engraftment 1% blast cells) was determined in NSG recipients at 10-12 weeks post-transplant.
Whole bone marrow was isolated from uninduced HSC-SCL-Cre^+ Pten^fx/fx βcat^fx(Exon3)/+ (Pten:β-cat^Act) mice and combined with an equal portion of Cre negative bone marrow from a littermate and transplanted into irradiated (10 Gy) B6.SJL-Ptprc^a Pepc^b/BoyJ (Ptprc) recipients.
Chemotherapy consisted of Nelarabine (Selleck) and Dexamethasone (BioVision) administered daily for 5 days consecutively. 43.4 mg/ml Nelarabine was administered intravenously via the tail vain according to the formula: Body Weight (g)×5=volume to inject (μl), which yielded 217 mg/kg. 2.5 mg/ml Dexamethasone was injected intraperitoneally according to the formula: Body Weight (g)×4=volume to inject (μl), yielding 10 mg/kg. […] [Low]NanoDXR (also referred to as [Low]NanoDoxo throughout) treatment used doxorubicin nanoparticles as described in International Patent Publication WO 2015/054269 (incorporated by reference in its entirety) administered as a single IV injection once per week on day 1 relative to above treatments using 0.8 mg/kg. Maintenance [Low]NanoDXR consisted of once per week injections of 0.4 mg/kg. Groups combining Nelarabine with Doxorubicin used a single injection containing both drugs. All drugs were solubilized in 45% (2-Hydroxypropyl)-β-cyclodextrin (HBC).
Cells were collected from bone marrow (femur and tibia), spleen, peripheral blood, and thymus. For cell surface phenotyping, a lineage cocktail (Lin) was used including CD3 (for HSPC but not LSC analysis), CD4, CD8, Mac-1, Gr1, B220, IgM, and Ter119 (eBioscience, San Diego, Calif.). Monoclonal antibodies against CD3 (separate fluorophore for LSC analysis), Sca-1, c-Kit, CD45.1, and CD45.2 were also used where indicated. Cell sorting and analysis were performed using an inFlux (BD), MoFlo (Dako, Ft. Collins, Colo.) and/or CyAn ADP (Dako, Ft. Collins, Colo.). Data analysis was performed using FlowJo software (Ashland, Oreg.).

[2] = test system: BM cells isolated from leukemic Pten:β-cat^Act double mutants (LSCs, HSPCs); assay: In vitro treatment of BM cells from leukemic mice, flow cytometry for LSCs and HSPCs; type: cell-based, mouse; details: 11, 33 or 100 nM, 72 hours
Method: Doxorubicin, 0105375, and thioguanosine were added to 11, 33 or 100 nM and cultured for 72 hours and analyzed by flow cytometry for LSCs (a) and HSPCs (b) as in FIG. 1. Fold change before and after culture for each population is indicated relative to equivalent vehicle control concentrations.
Bone marrow cells from leukemic mice at 8 weeks post-induction were cultured overnight at 5-20×10^4 cells per well in 96-well U-bottom tissue culture plates (Becton, Dickinson and Company; Cat. No. 353077) in HSC expansion media in low O2 conditions as previously described (Perry, J. M. et al. Cooperation between both Wnt/{beta}-catenin and PTEN/PI3K/Akt signaling promotes primitive hematopoietic stem cell self-renewal and expansion. Genes Dev 25, 1928-1942 (2011)). Doxorubicin (Sigma; D1515), 0105375 ((S)-N-(2-bromobenzyl)-N-(1-hydroxy-3-phenylpropan-2-yl)ethenesulfonamide, University of Kansas CMLD compound), or Thioguanosine was mixed with HSC expansion media and added to the cultures to obtain final concentrations of 11, 33, 100 nM. Equivalent amounts of DMSO alone (vehicle control) were added to parallel cultures for comparison. Half-media changes were performed approximately every 24 hrs. Cultures were analyzed after 72 hrs exposure to the indicated drug.

COc1cccc2c1C(=O)c1c(O)c3c(c(O)c1C2=O)C[C@@](O)(C(=O)CO)C[C@@H]3O[C@H]1C[C@H](N)[C@H](O)[C@H](C)O1 [DXR, doxorubicin]
inhibition of pS552-β-catenin (Western) (pS^552-β-catenin): effectively inhibited pS^552-β-catenin
LSC reduction, free DXR 5 doses of 0.15 μg/g ([1]; 5 daily injections 0.15 μg/g): ineffective
HSPCs in BM vs vehicle ([1]; [Low]DXR 0.5 mg/kg daily x5): allowed significant recovery of HSPCs
LSCs in BM vs vehicle ([1]; [Low]DXR 0.5 mg/kg daily x5): significantly reduced LSCs compared to vehicle
blast cells in BM vs vehicle ([1]; [Low]DXR 0.5 mg/kg daily x5): did not significantly reduce blast cells
blast cells in BM, [Low]DXR in combination with dexamethasone ([1]; [Low]DXR with Dexa.): does not act as a traditional chemotherapeutic
blast cells in BM, clinical equivalent (normal) dose DXR ([1]; normal dose DXR (8x higher than [Low]) with Dexa.): acted similar to chemotherapy in their reduction
HSPCs after culture, relative to vehicle [2]: not HSPCs
LSCs after culture, relative to vehicle [2]: significantly reduced LSCs
